The text below walks through data of patent US5705508A, “Anti-tumor compounds, pharmaceutical compositions, methods for preparation thereof and for treatment” (priority 1995, dated 1998).

“Also recorded” adds a separate entry of the source. Where two headings read alike, the source gives them in different places.

The conditions of series [1]: aqueous media, cited from earlier work.
The conditions of series [2]: clinical trials; cited from earlier work.
Series [3] has as its system A121 (ovarian cancer). As to the kind of experiment: Anticancer activity, inhibition of cell proliferation, A121 (ovarian). In kind it is cell-based. The conditions noted are these: Homo sapiens. The method, then: (§1) Compounds SB-T-101131, SB-T-101133, SB-T-101134, SB-T-10114, SB-T-101141, SB-T-101142, SB-T-101143, SB-T-101144, SB-T-101146, SB-T-101151 and SB-T-101161 were prepared according to the protocols described in Examples 59 and 60 above. These compounds were evaluated for cancer activity against human cancer cell lines of A121 (ovarian cancer), A549 (non-small cell lung cancer), HT-29 (colon cancer), MCF7 (breast cancer), and MCF7-R (adriamycin resistant breast cancer). Table 1 below illustrates the activity of these compounds as IC50 values in a nM concentration.
(§2) […] ACTIVITY OF NEW TAXANES (IC50 nM).
(§3) ^a IC50 represents the concentration that inhibits 50% of cell
(§4) proliferation. ^b MCF7R = mammary carcinoma cells 180 fold resistant
(§5) The cytotoxicities of the new taxanes shown in FIG. 1 hereto and listed in Table 1 were evaluated in vitro against human cancer cell lines according to methods more particularly described in Ojima, I., et al., "Structure--Activity Relationships of New Taxoids Derived from 14β-Hydroxy-10-Deacetyl/Baccatin III," Journal of Medicinal Chemistry, 37, 1408-1410 (1994) and Ojima, I., et al., "Synthesis and Biological Activity of 14-hydroxydocetaxel," Bioorganic and Medicinal Chemistry Letters, 4, 1571-1576 (1994) the contents of which are incorporated herein by reference as if set forth in full.

For series [4] the following is noted: compared with Taxol; listed as Taxotere; cited from earlier work.
For series [5], the system named is MCF7 (breast cancer). As to the kind of experiment: Anticancer activity, inhibition of cell proliferation, MCF7 (breast). The class given is cell-based. As to conditions: Homo sapiens. The protocol:
as §1, §2, §3, §4, §5

Series [6] has as its system HT-29 (colon cancer). As to the kind of experiment: Anticancer activity, inhibition of cell proliferation, HT-29 (colon). In kind it is cell-based. The conditions noted are these: Homo sapiens. The protocol:
as §1, §2, §3, §4, §5

Series [7] has as its system A549 (non-small cell lung cancer). As to the kind of experiment: Anticancer activity, inhibition of cell proliferation, A549 (NSCLC). The conditions noted are these: Homo sapiens. In kind it is cell-based. The protocol: as §1, §2, §3, §4, §5
For series [8], the system named is different cancers. As to conditions: background statement; cited from earlier work.
The test system of series [9] is MCF7-R (adriamycin resistant breast cancer). As to the kind of experiment: Anticancer activity, inhibition of cell proliferation, MCF7-R (adriamycin resistant breast). The class given is cell-based. As to conditions: Homo sapiens, MCF7R, read-out: IC50, MCF7-R. The protocol: Compounds SB-T-101131, SB-T-101133, SB-T-101134, SB-T-10114, SB-T-101141, SB-T-101142, SB-T-101143, SB-T-101144, SB-T-101146, SB-T-101151 and SB-T-101161 were prepared according to the protocols described in Examples 59 and 60 above. These compounds were evaluated for cancer activity against human cancer cell lines of A121 (ovarian cancer), A549 (non-small cell lung cancer), HT-29 (colon cancer), MCF7 (breast cancer), and MCF7-R (adriamycin resistant breast cancer).
as §3, §4, §5

Where [10] appears, read: concentration that inhibits 50% of cell proliferation, A121 (ovarian), read-out: IC50, A121 (ovarian).
Where [11] appears, read: concentration that inhibits 50% of cell proliferation, MCF7 (breast), read-out: IC50, MCF7 (breast).
Where [12] appears, read: concentration that inhibits 50% of cell proliferation, HT-29 (colon), read-out: IC50, HT-29 (colon).
[13] abbreviates: concentration that inhibits 50% of cell proliferation, A549 (NSCLC), read-out: IC50, A549 (NSCLC).
Setting [14] is: concentration that inhibits 50% of cell proliferation, mammary carcinoma cells 180 fold resistant to adriamycin.

As to `CC(=O)O[C@@]12CO[C@@H]1C[C@H](O)[C@@]1(C)C(=O)[C@H](O)C3=C(C)[C@@H](O)[C@H](O)[C@@](O)([C@@H](OC(=O)c4ccccc4)[C@H]21)C3(C)C` [14-OH-DAB, 14-Hydroxy-10-deacetylbaccatin III], in series [1], the water solubility result is “much higher water solubility than the usual 10-deacetylbaccatin III”.

What is called IC50 is the point on the concentration scale where inhibition reaches its midpoint. On to `CC(=O)O[C@@]12CO[C@@H]1C[C@H](O)[C@@]1(C)C(=O)[C@H](O)C3=C(C)[C@@H](OC(=O)[C@H](O)[C@@H](NC(=O)OC(C)(C)C)c4ccccc4)C[C@@](O)([C@@H](OC(=O)c4ccccc4)[C@H]21)C3(C)C` [Docetaxel], for which the side effects result in series [2] is “mouth sores and a plunge in white blood cell count”. The IC50 in series [3] (setting [10]) came out at 1.2 nM; in series [5] (setting [11]) it was 1 nM; in series [6] (setting [12]), 1.2 nM; in series [7] (setting [13]), 1 nM. Further, the “bioavailability / pharmacological properties” value in series [4] is “better pharmacological properties than Taxol; also recorded: better bioavailability”. Moreover, the water solubility result in series [1] is “somewhat improved water solubility”. The “cytotoxicity and antitumor activity” value in series [8] is listed as “antitumor activity superior to Taxol”.

For `CC(=O)O[C@H]1C(=O)[C@@]2(C)[C@H]([C@H](OC(=O)c3ccccc3)[C@]3(O)C[C@H](OC(=O)[C@H](O)[C@@H](NC(=O)c4ccccc4)c4ccccc4)C(C)=C1C3(C)C)[C@]1(OC(C)=O)CO[C@@H]1C[C@@H]2O` [Paclitaxel, reference compound], the side effects result in series [2] is listed as “nerve damage, muscle pain or disturbances in heart rhythm”. The IC50 was 6.1 nM in series [3] (setting [10]); 1.7 nM in series [5] (setting [11]); 3.2 nM in series [6] (setting [12]); 3.6 nM in [7] (setting [13]); 300 nM in [9] (setting [14]). Also, in series [1] (listed as Taxol), the water solubility entry was “limited solubility in aqueous media; also recorded: poor water solubility”. Further, the “cytotoxicity and antitumor activity” value in [8] is “high cytotoxicity and strong antitumor activity”.

On to `CC(=O)OC12COC1CC(O)C1(C)C(=O)C(O)C3=C(C)C(OC(=O)C(O)C(C=C(C)C)NC(=O)OC(C)(C)C)C4OC(=O)OC4(C(OC(=O)c4ccccc4)C21)C3(C)C` (stereo not drawn) [SB-T-10114], for which the IC50 in [3] (setting [10]) came to 1.7 nM; in series [5] (setting [11]), 0.5 nM; in [6] (setting [12]), 0.5 nM; in [7] (setting [13]) it was 0.2 nM; in series [9] (setting [14]), 54 nM.

For the compound `CC(=O)O[C@H]1C(=O)[C@@]2(C)[C@H]([C@H](OC(=O)c3ccccc3)[C@]34OC(=O)O[C@H]3[C@H](OC(=O)[C@H](O)[C@H](CC(C)C)NC(=O)OC(C)(C)C)C(C)=C1C4(C)C)[C@]1(OC(C)=O)CO[C@@H]1C[C@@H]2O` [SB-T-101131], the IC50 came out at 1.2 nM in [3] (setting [10]); 1.1 nM in [5] (setting [11]); 1.5 nM in series [6] (setting [12]); 0.7 nM in series [7] (setting [13]); 36 nM in series [9] (setting [14]).

Turning to `CC(=O)OC12COC1CC(O)C1(C)C(=O)C(OC(=O)C3CC3)C3=C(C)C(OC(=O)C(O)C(CC(C)C)NC(=O)OC(C)(C)C)C4OC(=O)OC4(C(OC(=O)c4ccccc4)C21)C3(C)C` (stereo not drawn) [SB-T-101133], the IC50 in [3] (setting [10]) stood at 1.1 nM; in [5] (setting [11]) it was 0.7 nM; in series [6] (setting [12]), 3.3 nM; in series [7] (setting [13]) it was 1.2 nM; in [9] (setting [14]) it was 22 nM.

For `CC(=O)OC12COC1CC(O)C1(C)C(=O)C(OC(=O)N(C)C)C3=C(C)C(OC(=O)C(O)C(CC(C)C)NC(=O)OC(C)(C)C)C4OC(=O)OC4(C(OC(=O)c4ccccc4)C21)C3(C)C` (stereo not drawn) [SB-T-101134], the IC50 was 0.6 nM in [3] (A121, read-out: IC50, A121 (ovarian)); 0.6 nM in [5] (MCF7, read-out: IC50, MCF7 (breast)); 1.3 nM in series [6] (HT-29, read-out: IC50, HT-29 (colon)); 0.6 nM in series [7] (A549, read-out: IC50, A549 (NSCLC)); 22 nM in series [9].

In the case of `CC(=O)OC1C(=O)C2(C)C(O)CC3OCC3(OC(C)=O)C2C(OC(=O)c2ccccc2)C23OC(=O)OC2C(OC(=O)C(O)C(C=C(C)C)NC(=O)OC(C)(C)C)C(C)=C1C3(C)C` (stereo not drawn) [SB-T-101141], the IC50 in series [3] (setting [10]) was determined as 1.5 nM; in [5] (setting [11]), 3.3 nM; in series [6] (setting [12]), 2.4 nM; in [7] (setting [13]) it was 1.4 nM; in [9] (setting [14]), 36 nM.

With `CCC(=O)OC1C(=O)C2(C)C(O)CC3OCC3(OC(C)=O)C2C(OC(=O)c2ccccc2)C23OC(=O)OC2C(OC(=O)C(O)C(C=C(C)C)NC(=O)OC(C)(C)C)C(C)=C1C3(C)C` (stereo not drawn) [SB-T-101142], the IC50 came out at 0.7 nM in series [3] (setting [10]); 0.1 nM in series [5] (setting [11]); 0.6 nM in [6] (setting [12]); 0.5 nM in [7] (setting [13]); 21 nM in [9] (setting [14]).

As to `CC(=O)OC12COC1CC(O)C1(C)C(=O)C(OC(=O)C3CC3)C3=C(C)C(OC(=O)C(O)C(C=C(C)C)NC(=O)OC(C)(C)C)C4OC(=O)OC4(C(OC(=O)c4ccccc4)C21)C3(C)C` (stereo not drawn) [SB-T-101143], the IC50 in series [3] (setting [10]) came to 0.5 nM; in [5] (setting [11]), 0.2 nM; in [6] (setting [12]) it was 1 nM; in series [7] (setting [13]), 0.5 nM; in series [9] (setting [14]) it was 24 nM.

Consider `CC(=O)OC12COC1CC(O)C1(C)C(=O)C(OC(=O)N(C)C)C3=C(C)C(OC(=O)C(O)C(C=C(C)C)NC(=O)OC(C)(C)C)C4OC(=O)OC4(C(OC(=O)c4ccccc4)C21)C3(C)C` (stereo not drawn) [SB-T-101144], for which the IC50 stood at 0.7 nM in series [3] (setting [10]); 0.2 nM in [5] (setting [11]); 1.2 nM in [6] (setting [12]); 0.6 nM in [7] (setting [13]); 22 nM in series [9] (setting [14]).

On to `COC(=O)OC1C(=O)C2(C)C(O)CC3OCC3(OC(C)=O)C2C(OC(=O)c2ccccc2)C23OC(=O)OC2C(OC(=O)C(O)C(C=C(C)C)NC(=O)OC(C)(C)C)C(C)=C1C3(C)C` (stereo not drawn) [SB-T-101146], for which the IC50 in series [3] (setting [10]) was determined as 0.6 nM; in series [5] (setting [11]), 0.3 nM; in series [6] (setting [12]), 0.7 nM; in [7] (setting [13]), 0.5 nM; in series [9] (setting [14]), 38 nM.

For `CC=CC(NC(=O)OC(C)(C)C)C(O)C(=O)OC1C(C)=C2C(OC(C)=O)C(=O)C3(C)C(O)CC4OCC4(OC(C)=O)C3C(OC(=O)c3ccccc3)C3(OC(=O)OC13)C2(C)C` (stereo not drawn) [SB-T-101151], the IC50 in [3] (setting [10]) came out at 2.4 nM; in series [5] (setting [11]), 1.6 nM; in [6] (setting [12]), 3 nM; in [7] (setting [13]), 0.4 nM; in [9] (setting [14]), 49 nM.

As to `CC(=O)OC1C(=O)C2(C)C(O)CC3OCC3(OC(C)=O)C2C(OC(=O)c2ccccc2)C23OC(=O)OC2C(OC(=O)C(O)C(NC(=O)OC(C)(C)C)c2ccco2)C(C)=C1C3(C)C` (stereo not drawn) [SB-T-101161], the IC50 in series [3] (setting [10]) stood at 0.4 nM; in series [5] (setting [11]), 0.5 nM; in series [6] (setting [12]) it was 0.6 nM; in series [7] (setting [13]), 0.5 nM; in [9] (setting [14]), 58 nM.
